Measurements as given in PMC12839112, “Synthesis and Bioactivity Assessment of Novel Quinolinone–Triazole Hybrids” (Biomolecules, 2025).
pIC50: −log10 of the molar value.

Tests used:
[1] = Cell viability, MTT assay, HaCaT cells; conditions: human
Description: (§1) The determination of the cell viability of HaCaT cells and the cell toxicity of A549 and A375 cell lines was performed according to Myriagkou et al. [57], via the MTT (3-(4,5-dimethylthiazol-2-yl)-2,5-diphenyltetrazolium bromide) assay. In a 96-well plate, cells were seeded at specific concentrations (30 × 10^4 cells/mL for HaCaT cells and 20 × 10^4 cells/mL for A549 and A375 cells) and incubated (37 °C, 5% CO2) for 24 h. Following this first incubation period, solutions of the tested compounds at various concentrations were added to the cells, and the plates were incubated for an additional 24 h. Upon the second incubation period, the appropriate volume of MTT solution (1 mg/mL in PBS, filtrated through a 0.22-μm filter) was added to each well, and the plate was incubated for 4 h, during which formazan crystals were formed. The crystals were dissolved by addition of 100 μL od DMSO in each cell and after 30 min of stirring, the absorbance was recorded at 450 nm using a microplate reader. All tests were undertaken on three replicates and compared to the control (untreated cells), the blank (medium), and the reference control (cells treated with 100 μM silibinin).
(§2) The cytotoxicity of the novel compounds was also measured via the mehtylthiazol tetrazolium (MTT) assay.

[2] = Inhibition of linoleic acid peroxidation induced by AAPH radical; conditions: 100 μM, 37 °C, pH 7.4
Description: The in vitro assays were performed at a concentration of 100 µM (a 10 mM stock solution in DMSO was used, from which several dilutions were made for the determination of IC50 values), at least in triplicate, and the standard deviation of absorbance was less than 10% of the mean. The compounds were diluted in 0.1% DMSO under sonification in an appropriate buffer in several dilutions. Statistical comparisons were made using Student’s t-test. A statistically significant difference was defined as p < 0.05. The results were compared to the corresponding reference compounds.
The determination of the ability of the synthesized compounds to inhibit linoleic acid peroxidation induced by the radical initiator 2,2-Azobis(2-amidinopropane) dihydrochloride (AAPH) was performed according to Hadjipavlou-Litina et al.. Ten microliters of the 16 mM sodium linoleate solution were added to the UV cuvette containing 0.93 mL of a 0.05 M phosphate buffer, pH 7.4, pre-thermostated at 37 °C. The oxidation reaction was initiated at 37 °C under air by the addition of 50 µL of a 40 mM AAPH solution, which was used as a free radical initiator. Oxidation was carried out in the presence of aliquots (10 µL) in the assay without antioxidants and monitored at 234 nm. Lipid oxidation was recorded in the presence of the same level of DMSO served as a negative control. results are compared to the appropriate standard compound Trolox.
In an attempt to assess the in vitro antioxidant potential of the synthesized compounds, their inhibitory activity against lipid peroxidation of linoleic acid sodium salt was examined, induced by AAPH radical under atmospheric oxygen at 37 °C. The anti-lipid peroxidation was recorded with UV spectrophotometrically. The assay is a quick and widely used method for the assessment of antioxidant activity.

A549 cell line = assay: Cytotoxicity, MTT assay, A549 cells; conditions: Homo sapiens, A549, 24 h, read-out: % Cytotoxicity A549 (100 μΜ)
Description: as §1, §2

A375 cell line = assay: Cytotoxicity, MTT assay, A375 cells; conditions: Homo sapiens, A-375, 24 h, read-out: % Cytotoxicity A375 (100 μΜ)
Description: as §1, §2

[3] = target: T1, soybean lipoxygenase (LOX) (Glycine max, UniProt P08170); assay: Soybean LOX inhibition in vitro; assay type: biochemical; conditions: for pIC50: sodium linoleate substrate; for inhibition at 100 µM: 100 μM (0.1 mM), read-out: Inhibition of LOX (% at 100 μΜ)
T1 sequence (P08170 1-839): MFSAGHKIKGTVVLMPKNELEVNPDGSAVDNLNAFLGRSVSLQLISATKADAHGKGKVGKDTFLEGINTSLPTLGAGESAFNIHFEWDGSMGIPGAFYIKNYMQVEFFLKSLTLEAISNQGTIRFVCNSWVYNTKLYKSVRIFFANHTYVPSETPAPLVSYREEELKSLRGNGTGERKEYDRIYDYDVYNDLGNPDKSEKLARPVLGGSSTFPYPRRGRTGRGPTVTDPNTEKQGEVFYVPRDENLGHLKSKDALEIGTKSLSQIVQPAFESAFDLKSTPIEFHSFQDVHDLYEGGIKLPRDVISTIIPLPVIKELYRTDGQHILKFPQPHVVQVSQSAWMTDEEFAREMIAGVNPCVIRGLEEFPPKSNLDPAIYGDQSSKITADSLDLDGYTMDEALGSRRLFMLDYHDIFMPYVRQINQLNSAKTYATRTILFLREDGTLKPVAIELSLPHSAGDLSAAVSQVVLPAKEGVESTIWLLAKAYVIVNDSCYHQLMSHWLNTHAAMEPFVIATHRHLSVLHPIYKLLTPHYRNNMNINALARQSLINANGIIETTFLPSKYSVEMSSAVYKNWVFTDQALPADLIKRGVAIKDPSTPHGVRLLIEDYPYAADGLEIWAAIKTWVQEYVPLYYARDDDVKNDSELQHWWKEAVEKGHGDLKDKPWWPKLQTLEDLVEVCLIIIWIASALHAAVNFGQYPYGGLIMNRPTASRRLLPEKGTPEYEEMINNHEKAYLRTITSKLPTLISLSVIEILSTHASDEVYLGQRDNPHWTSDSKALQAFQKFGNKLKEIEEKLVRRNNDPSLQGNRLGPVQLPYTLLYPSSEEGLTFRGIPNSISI
Description: The compounds were diluted in 0.1% DMSO under sonification in an appropriate buffer in several dilutions. Statistical comparisons were made using Student’s t-test. A statistically significant difference was defined as p < 0.05.
The determination of the inhibition of soybean LOX for the synthesized compounds was performed according to Hadjipavlou-Litina et al.. The tested compounds were incubated at room temperature with sodium linoleate (0.1 mM) and 0.2 mL of enzyme solution (1/9 × 10^−4 w/v in saline). The method was based on the conversion of sodium linoleate to 13-hydroperoxylinoleic acid at 234 nm. In order to determine the […] values, different concentrations were used.
As evidence of anti-inflammatory activity, the quinolinone derivatives were examined for their ability to inhibit soybean lipoxygenase (LOX). LOX catalyzes the cleavage of arachidonic acid to leukotrienes that are found to play a crucial role in the pathogenesis of some inflammatory diseases.

in vitro = conditions: human
Description: as §1, §2

Compound: C#CCNC(=O)c1c(O)c2ccccc2n(C)c1=O [4a, 4-hydroxy-1-methyl-2-oxo-N-(prop-2-yn-1-yl)-1,2-dihydroquinoline-3-carboxamide]
- viability at 24 h, 100 µM [1]: 61.5%
- Inhibition of Linoleic Acid Peroxidation (% at 100 μΜ) [2]: 42.7%
- cytotoxicity at 100 µM (A549 cell line): 0%
- cytotoxicity at 100 µM (A375 cell line): 7%

Compound: C#CCNC(=O)c1c(O)c2ccccc2n(CCCCCCCC)c1=O [4e, 4-hydroxy-1-octyl-2-oxo-N-(prop-2-yn-1-yl)-1,2-dihydroquinoline-3-carboxamide]
- viability at 24 h, 100 µM [1]: 76.2%
- Inhibition of Linoleic Acid Peroxidation (% at 100 μΜ) [2]: 34.9%
- cytotoxicity at 100 µM (A549 cell line): 33.7%
- cytotoxicity at 100 µM (A375 cell line): 22.6%
- pIC50 [3]: 4.32

Compound: O=C(NCc1cn(Cc2ccccc2)nn1)c1c(O)c2ccccc2n(CCCc2ccccc2)c1=O [5f, N-((1-benzyl-1H-1,2,3-triazol-4-yl)methyl)-4-hydroxy-2-oxo-1-(3-phenylpropyl)-1,2-dihydroquinoline-3-carboxamide]
- viability at 24 h, 100 µM [1]: 100%
- Inhibition of Linoleic Acid Peroxidation (% at 100 μΜ) [2]: 98.0%
- cytotoxicity at 100 µM (A549 cell line): 12.5%
- cytotoxicity at 100 µM (A375 cell line): 23.7%
- pIC50 [3]: 4.30

Compound: CCn1c(=O)c(C(=O)NCc2cn(CCCc3ccccc3)nn2)c(O)c2ccccc21 [5d, 1-ethyl-4-hydroxy-2-oxo-N-((1-(3-phenylpropyl)-1H-1,2,3-triazol-4-yl)methyl)-1,2-dihydroquinoline-3-carboxamide]
- viability at 24 h, 100 µM [1]: 99.6%
- Inhibition of Linoleic Acid Peroxidation (% at 100 μΜ) [2]: 92.0%
- cytotoxicity at 100 µM (A549 cell line): 28.9%
- cytotoxicity at 100 µM (A375 cell line): 10.5%
- pIC50 [3]: 4.32

Compound: COc1cc(C2Oc3cc([C@H]4Oc5cc(O)cc(O)c5C(=O)[C@@H]4O)ccc3OC2CO)ccc1O (some centres unmarked) [Silibinin, silibinin, reference compound]
- viability at 24 h, 100 µM [1]: 47.2%
- cytotoxicity at 100 µM (A549 cell line): 57.4%
- cytotoxicity at 100 µM (A375 cell line): 12.6%

Compound: CC(C)=CCn1cc(CNC(=O)c2c(O)c3ccccc3n(CC=Cc3ccccc3)c2=O)nn1 [5h, 1-cinnamyl-4-hydroxy-N-((1-(3-methylbut-2-en-1-yl)-1H-1,2,3-triazol-4-yl)methyl)-2-oxo-1,2-dihydroquinoline-3-carboxamide]
- viability at 24 h, 100 µM [1]: 98.9%
- Inhibition of Linoleic Acid Peroxidation (% at 100 μΜ) [2]: 18.7%
- cytotoxicity at 100 µM (A549 cell line): 0%
- cytotoxicity at 100 µM (A375 cell line): 0%
- inhibition at 100 µM [3]: 44.5%

Compound: O=C(NCc1cn(Cc2ccccc2)nn1)c1c(O)c2ccccc2n(Cc2ccccc2)c1=O [5b, 1-benzyl-N-((1-benzyl-1H-1,2,3-triazol-4-yl)methyl)-4-hydroxy-2-oxo-1,2-dihydroquinoline-3-carboxamide]
- viability at 24 h, 100 µM [1]: 86.5%
- Inhibition of Linoleic Acid Peroxidation (% at 100 μΜ) [2]: 89.0%
- cytotoxicity at 100 µM (A549 cell line): 49.9%
- cytotoxicity at 100 µM (A375 cell line): 0%
- pIC50 [3]: 4.34

Compound: C#CCNC(=O)c1c(O)c2ccccc2n(CC=Cc2ccccc2)c1=O [4g, 1-cinnamyl-4-hydroxy-2-oxo-N-(prop-2-yn-1-yl)-1,2-dihydroquinoline-3-carboxamide]
- viability at 24 h, 100 µM [1]: 100%
- Inhibition of Linoleic Acid Peroxidation (% at 100 μΜ) [2]: 27.6%
- cytotoxicity at 100 µM (A549 cell line): 35.2%
- cytotoxicity at 100 µM (A375 cell line): 11.7%
- pIC50 [3]: 4.29

Compound: C#CCNC(=O)c1c(O)c2ccccc2n(Cc2ccccc2)c1=O [4b, 1-benzyl-4-hydroxy-2-oxo-N-(prop-2-yn-1-yl)-1,2-dihydroquinoline-3-carboxamide]
- viability at 24 h, 100 µM [1]: 88.7%
- Inhibition of Linoleic Acid Peroxidation (% at 100 μΜ) [2]: 14.7%
- cytotoxicity at 100 µM (A549 cell line): 45.7%
- cytotoxicity at 100 µM (A375 cell line): 7.6%
- pIC50 [3]: 4.36

Compound: C#CCNC(=O)c1c(O)c2ccccc2n(CCCc2ccccc2)c1=O [4f, 4-hydroxy-2-oxo-1-(3-phenylpropyl)-N-(prop-2-yn-1-yl)-1,2-dihydroquinoline-3-carboxamide]
- viability at 24 h, 100 µM (in vitro): 76.9%
- Inhibition of Linoleic Acid Peroxidation (% at 100 μΜ) [2]: 81.1%
- cytotoxicity at 100 µM (A549 cell line): 0%
- cytotoxicity at 100 µM (A375 cell line): 0%
- inhibition at 100 µM [3]: 49.3%

Compound: CCn1c(=O)c(C(=O)NCc2cn(C/C=C/c3ccccc3)nn2)c(O)c2ccccc21 [5e, (E)-N-((1-cinnamyl-1H-1,2,3-triazol-4-yl)methyl)-1-ethyl-4-hydroxy-2-oxo-1,2-dihydroquinoline-3-carboxamide]
- viability at 24 h, 100 µM [1]: 27.6%
- Inhibition of Linoleic Acid Peroxidation (% at 100 μΜ) [2]: 91.0%
- cytotoxicity at 100 µM (A549 cell line): 7.3%
- cytotoxicity at 100 µM (A375 cell line): 35.2%
- pIC50 [3]: 4.35

Compound: CC(C)=CCn1c(=O)c(C(=O)NCc2cn(Cc3ccccc3)nn2)c(O)c2ccccc21 [5g, N-((1-benzyl-1H-1,2,3-triazol-4-yl)methyl)-4-hydroxy-1-(3-methylbut-2-en-1-yl)-2-oxo-1,2-dihydroquinoline-3-carboxamide]
- viability at 24 h, 100 µM [1]: 100%
- Inhibition of Linoleic Acid Peroxidation (% at 100 μΜ) [2]: 83.0%
- cytotoxicity at 100 µM (A549 cell line): 13.4%
- cytotoxicity at 100 µM (A375 cell line): 46.8%
- pIC50 [3]: 4.12

Compound: Cn1c(=O)c(C(=O)NCc2cn(Cc3ccccc3)nn2)c(O)c2ccccc21 [5a, N-((1-benzyl-1H-1,2,3-triazol-4-yl)methyl)-4-hydroxy-1-methyl-2-oxo-1,2-dihydroquinoline-3-carboxamide]
- viability at 24 h, 100 µM [1]: 100%
- Inhibition of Linoleic Acid Peroxidation (% at 100 μΜ) [2]: 98.0%
- cytotoxicity at 100 µM (A549 cell line): 24.2%
- cytotoxicity at 100 µM (A375 cell line): 0%
- pIC50 [3]: 5.00

Compound: CCn1c(=O)c(C(=O)NCc2cn(CC=C(C)C)nn2)c(O)c2ccccc21 [5i, 1-ethyl-4-hydroxy-N-((1-(3-methylbut-2-en-1-yl)-1H-1,2,3-triazol-4-yl)methyl)-2-oxo-1,2-dihydroquinoline-3-carboxamide]
- Inhibition of Linoleic Acid Peroxidation (% at 100 μΜ) [2]: 96.0%
- pIC50 [3]: 4.15

Compound: C#CCNC(=O)c1c(O)c2ccccc2n(CC)c1=O [4c, 1-ethyl-4-hydroxy-2-oxo-N-(prop-2-yn-1-yl)-1,2-dihydroquinoline-3-carboxamide]
- viability at 24 h, 100 µM [1]: 90.5%
- Inhibition of Linoleic Acid Peroxidation (% at 100 μΜ) [2]: 100%
- cytotoxicity at 100 µM (A549 cell line): 16.4%
- cytotoxicity at 100 µM (A375 cell line): 0.2%
- pIC50 [3]: 4.65

Compound: CC(C)=CCn1cc(CNC(=O)c2c(O)c3ccccc3n(Cc3ccccc3)c2=O)nn1 [5j, 1-benzyl-4-hydroxy-N-((1-(3-methylbut-2-en-1-yl)-1H-1,2,3-triazol-4-yl)methyl)-2-oxo-1,2-dihydroquinoline-3-carboxamide]
- viability at 24 h, 100 µM [1]: 100%
- Inhibition of Linoleic Acid Peroxidation (% at 100 μΜ) [2]: 92.0%
- cytotoxicity at 100 µM (A549 cell line): 18.8%
- cytotoxicity at 100 µM (A375 cell line): 0%
- pIC50 [3]: 4.39

Compound: Cc1c(C)c2c(c(C)c1O)CCC(C)(C(=O)O)O2 (centres unmarked) [Trolox, reference compound]
- Inhibition of Linoleic Acid Peroxidation (% at 100 μΜ) [2]: 88.0%

Compound: CCn1c(=O)c(C(=O)NCc2cn(Cc3ccccc3)nn2)c(O)c2ccccc21 [5c, N-((1-benzyl-1H-1,2,3-triazol-4-yl)methyl)-1-ethyl-4-hydroxy-2-oxo-1,2-dihydroquinoline-3-carboxamide]
- viability at 24 h, 100 µM [1]: 100%
- Inhibition of Linoleic Acid Peroxidation (% at 100 μΜ) [2]: 94.0%
- cytotoxicity at 100 µM (A549 cell line): 0%
- cytotoxicity at 100 µM (A375 cell line): 0%
- pIC50 [3]: 4.29
